From patent US20240299383A1, “IMMUNOMODULATOR COMPOSITION COMPRISING AZVUDINE” (HENAN GENUINE BIOTECH CO., LTD., priority 2023, published 2024)

Columns and labels:
[1] = system: immune cells in CT26 tumor; experiment: Infiltration of immune cells in tumor by flow cytometry, CT26 tumor model; assay type: in vivo, BALB/c mice
Description: Tumor tissue was washed once with PBS, and removed of fat. The tumor tissue was quickly cut into small pieces. The chopped tumor tissue was transferred to a tube C containing 5 mL of digestive enzyme mixed solution. The tube C was put in a tissue processor, the tissue fragments were ensured to be submerged in the digestive enzyme, and the program m_imptumor_01_01 was performed. The sample was put in a water bath shaker at 37° C. for 30 min of digestion. After the digestion was completed, the program m_imptumor_01_01 was performed again, and then an appropriate amount of PBS containing 2% fetal bovine serum was added to terminate the digestion. The obtained mixture was filtered with a […] cell mesh to remove residual tissue, and washed with PBS. An appropriate volume of PBS was added according to the amount of cell precipitate to resuspend cells. Then the cells were gently blown evenly, and counted with a hemocytometer. An appropriate amount of cells were taken out and stained with antibodies.
The cells were resuspended with PBS to a concentration of 1×10^6 cells/100 μL. The cell suspension was added to a 96-well V-bottom plate at 100 μL per well. The plate was centrifuged at 450 g at 4° C. for 5 min, and the supernatant solution was discarded. The cells were resuspended with 100 μL of prepared Zombie NIR Live/Dead solution, then cultured at 4° C. in the dark for 30 min, and then washed twice with PBS. Then the cells in each well were resuspended with 50 μL of staining buffer containing Fc receptor inhibitor (1 μL of Fc receptor inhibitor+49 μL of staining buffer), and cultured at 4° C. in the dark for 5 min. Then the cells in each well were resuspended with 50 μL of Brilliant staining buffer containing Pacific Orange CD8, BV605 MHCII, BV650 CD25, BV750 CD45, BV785 Ly6C, AF488 CD11c, AF532 CD11b, PE-DZL594 CD49b, APC Ly6G, APC-Cy5.5 CD4, APC-Cy7 CD13, BV42 CD69 (or an isotype control antibody thereof), and cultured at 4° C. in the dark for 30 min. After staining was completed, the cells were washed twice with 200 μL of staining buffer.
The cells in each well were resuspended with 100 μL of Fixation/Permeabilization, and cultured at 4° C. in the dark for 30 min. After permeabilization was completed, the cells were washed twice with 200 μL of Permeabilization buffer. The cells were resuspended with 100 μL of Permeabilization buffer containing Fc receptor inhibitor, and cultured at 4° C. in the dark for 5 min. Then the cells were directly added with intracellular antibodies PE-Cy7 FoxP3 and PE Ki67 (or an isotype control antibody thereof), and cultured at 4° C. in the dark for 30 min. After staining was completed, the cells were washed twice with 200 μL of Permeabilization buffer, and resuspended with 200 μL of staining buffer. The flow cytometry detection was completed within 24 h.
The flow cytometry data was analyzed using FlowJo, SPSS and Graphpad Prism softwares, specifically including the following: • 1) The proportion of CD45+ cells in living cells of tumor tissue; • 2) The ratio of T, CD4+T, CD8+T, Treg, Myeloid, DC, NK, PMN-MDSC and M-MDSC in CD45+ cells; • 3) The ratio of CD8+T to Treg and the ratio of CD4+Teff to Treg; • 4) The CD69 positive rate and median fluorescence intensity (MFI) in T, CD4+T, and CD8+T cells; • 5) The Ki67 positive rate and median fluorescence intensity (MFI) in T, CD4+T, CD8+ and T cells; • 6) The number of T, CD4+T, CD8+T, Treg, Myeloid, DC, NK, PMN-MDSC, M-MDSC, and white blood cells per 100 mg of tumor tissue;
In this experiment, the CT26 tumor model was established on BALB/c mice, and the mice were treated with azvudine at different doses (0.25 mg/kg, 1 mg/kg). Tumor samples were collected. Then the proportion of each immune cell subset and the activation and proliferation of T, CD4+T and CD8+T were detected by flow cytometry.

CT26 cells [2] = experiment: Anti-tumor effect of azvudine in CT-26 tumor-bearing mice with severe immunodeficiency; assay type: in vivo; conditions: mice with severe immunodeficiency (B-NDG), o.p., QD×2 W
[3] = system: murine colorectal cancer CT-26 cell line; experiment: Azvudine in combination with PD-1 antibody in murine colorectal cancer CT-26 homograft tumor model; assay type: in vivo, BALB/c female mouse; conditions: for T/C (%) / TGI(%): tumor volume on the 17th day; for T/Cweight (%): 17th day
Source text: Further, the anti-tumor effect of azvudine in combination with PD-1 antibody on BALB/c female mouse subcutaneously xenografted with murine colorectal cancer CT-26 cell line animal model was studied.

B-cell lymphoma A20 = experiment: Azvudine in combination with PD-1 antibody in B-cell lymphoma A20 tumor-bearing mouse model; assay type: in vivo
Source text: The effect of azvudine in combination with PD-1 antibody on the B-cell lymphoma A20 tumor-bearing mouse model was further studied.

CT26 cells [4] = experiment: Anti-tumor effect of azvudine in CT26 tumor-bearing mice with normal immune function; assay type: in vivo, BALB/c mouse; conditions: mice with normal immunity (BALB/c), o.p., QD×2 W
[5] = system: cytokines (GM-CSF, MCP-1, IFNγ, IFNβ, TNFa, IL2, IL4, IL8, IL10); experiment: Release level of cytokines in serum and tumor tissue by MSD method, CT26 tumor model; assay type: in vivo, BALB/c mice; conditions: vs Vehicle
Description: CT26 cells were cultured in RPMI 1640 medium containing 10% fetal bovine serum at 37° C. in a 5% CO2 incubator. The cells were passaged routinely once a week. When the cell saturation reached 80%-90% and the cell number achieved the requirement, the cells were collected, counted and inoculated.
Animals were BALB/c female mice, 8 weeks old and weighing 18.5-22.9 g, which were provided by Shanghai Lingchang Biotechnology Co., Ltd.
0.1 mL (0.3×10^6) of CT26 cells were subcutaneously inoculated into each mouse. When the average tumor volume reached 101 mm^3, the mice were grouped and administered.
• 1) Quick-frozen tissue samples were taken out from the −80° C. refrigerator. • 2) On dry ice, part of the tumor tissue (about 50-100 mg) were cut out, and put into a 2 mL centrifuge tube with steel beads. Then the tube was added with 350 μL of cell lysis solution RIPA (in which 1% protease inhibitor and phosphatase inhibitor had been freshly added). • 3) The tissue was crushed with Tissue grinder at the highest frequency for 5 min. • 4) The tissue lysate was put on ice for 30 min. • 5) The tissue lysate was centrifuged at 12,000 rpm at 4° C. for 10 min. The supernatant was collected and put into a new 1.5 mL centrifuge tube.
• 1) The protein extract was diluted 50 times (2 μL of protein extract+98 μL of RIPA cell lysis buffer). • 2) Standard product and diluted samples were added at 10 μL/well in a 96-well transparent plate. • 3) Preparation of working solution: Reagent A and reagent B were mixed at a ratio of 50:1. 200 μL of the mixture was added to each well. • 4) The 96-well transparent plate was incubated at 37° C. for 30 min. • 5) The OD value at 562 nm was detected by a microplate reader, and then the tumor protein was quantified according to the OD result. • 6) The total protein concentration of the tumor samples was uniformly 2 mg/mL. • 7) The protein was quantified with BCA quantification kit. • 8) According to the quantitation results, the sample protein concentration was uniformly diluted to 2 μg/μL with RIPA lysis solution. • 9) MSD experiment was performed or the diluted samples were stored in a −80° C. refrigerator.
• 1) Preparation of standard product: 250 μL of Diluent 43 diluent was added to the standard product. The mixture was mixed well, and left to stand at room temperature for 15-30 min, and serially diluted by 4 times using Diluent 43 to obtain standard products Nos. 1-7. Diluent 43 was standard product No. 8. • 2) Sample dilution: The samples were diluted with Diluent 43. • 3) Antibody dilution: 100× antibody stock solution was diluted to 1×. • 4) Buffer preparation: 5× buffer was diluted to 1× with deionized water.
• 1) 200 μL of each biotin antibody was added to 300 μL of the designated linker. The resulting mixture was stirred by vortex and incubated at room temperature for 30 min. • 2) 200 μL of stop solution was added. The resulting mixture was stirred by vortex and incubated at room temperature for 30 min. • 3) 600 μL of each U-PLEX Linker-Coupled antibody solution (10×) was mixed into a tube and mixed by vortex. • 4) When the number of binding antibodies was less than 10, the solution was supplemented to 6 ml with stop solution. • 5) 50 μL of multiplex coating solution was added to each well. The plate was sealed with an adhesive board, and shaken at room temperature for 1 h. • 6) The wells were washed 3 times with 1× MSD wash Buffer at 150 μL/well. • 7) Standard product and detection antibody solutions were prepared. • 8) 25 μL of Diluent 43 was added to each well. • 9) 25 μL of prepared standard product, tissue sample or serum sample was added to each well. The plate was sealed with an adhesive board, and incubated at room temperature for 1 h. • 10) The wells were washed 3 times with 1× MSD wash Buffer at 150 μL/well. • 11) 50 μL of detection antibody solution was added to each well. […]

[6] = 0.25 mg/kg and 1 mg/kg PO QD × 5D, dose-dependent
[7] = after administration, 0.25 and 1 mg/kg, vs control group
[8] = high-dose group (1 mg/kg PO QD × 5D)
[9] = tumor tissue, 0.25 mg/kg and 1 mg/kg PO QD × 5D, certain dose-dependency

For `[N-]=[N+]=N[C@]1(CO)O[C@@H](n2ccc(N)nc2=O)[C@@H](F)[C@@H]1O` [Azvudine], the “infiltration of immune cells in the tumor” value ([1]; 0.25 mg/kg and 1 mg/kg PO QD × 5D, vs control group) was “increased”, the “infiltration of CD8+T cells in the tumor” value [1, 6] was “increase” and the “infiltration of NK cells in the tumor” value [1, 6] was “increase”. The “other cell subsets after administration” value ([1]; 0.25 and 1 mg/kg, compared with the control group) was “no significant change”, the “expression level of CD69 in T, CD4+ T, and CD8+ T cells” value [1, 7] was “no significant difference” and the “expression level of Ki67 in T, CD4+ T, and CD8+ T cells” value [1, 7] was “no significant difference”. The “proportion of M-MDSC cells” value [1, 8] was “significant reduction”, the “proportion of PMN-MDSC cells” value [1, 8] was “significant reduction” and the “proportion of myeloid cells” value [1, 8] was “significantly reduced”. For the same molecule, the “ratio of CD4Teff/Treg” value [1, 8] was “significantly increased”, the “ratio of CD8T/Treg” value [1, 8] was “significantly increased” and the “CD8T/Treg and CD4Teff/Treg ratios and proportion of myeloid, M-MDSC, PMN-MDSC cells” value ([1]; low-dose group (0.25 mg/kg PO QD × 5D), compared with high-dose group) was “same trend”. For the same molecule, the “IR(%)” value (CT26 cells [2]; 0.25 mpk) was 9.4%, the “TGI(%)” value (CT26 cells [2]; 0.25 mpk) was 13% and the “IR(%)” value (CT26 cells [2]; 1 mpk) was 49.2%. For the same molecule, the “TGI(%)” value (CT26 cells [2]; 1 mpk) was 53%, the “Tumor weight (mg) (On the 17th day)” value ([3]; Azvudine 0.25 mg/kg) was 848 ± 210 mg and the “Tumor volume (mm^3) on the 17th day” value ([3]; Azvudine 0.25 mg/kg p.o. QD × 18 days) was 768 ± 74 mm^3. The “Tumor volume (mm^3) on the 17th day” value ([3]; Azvudine 0.25 mg/kg p.o. QD × 18 days, listed as azvudine) was 768 mm^3, the “T/C (%)” value ([3]; Azvudine 0.25 mg/kg p.o.) was 39.18% and the “TGI(%)” value ([3]; Azvudine 0.25 mg/kg p.o.) was 63.26%. The “T/Cweight (%)” value ([3]; Azvudine 0.25 mg/kg) was 42.52%, the “Tumor weight (mg) (On the 17th day)” value ([3]; Azvudine 0.5 mg/kg) was 386 ± 256 mg and the “Tumor volume (mm^3) on the 17th day” value ([3]; Azvudine 0.5 mg/kg p.o. QD × 18 days) was 347 ± 77 mm^3. For the same molecule, the “Tumor volume (mm^3) on the 17th day” value ([3]; Azvudine 0.5 mg/kg p.o. QD × 18 days, listed as azvudine) was 347 mm^3, the “T/C (%)” value ([3]; Azvudine 0.5 mg/kg p.o.) was 17.63% and the “TGI(%)” value ([3]; Azvudine 0.5 mg/kg p.o.) was 84.85%. For the same molecule, the “T/Cweight (%)” value ([3]; Azvudine 0.5 mg/kg) was 19.37%, the “IR(%)” value (B-cell lymphoma A20; Azvudine single drug, 1 mpk) was 70.8% and the “TGI(%)” value (B-cell lymphoma A20; Azvudine single drug, 1 mpk) was 70%. The “inhibitory activity on the B-cell lymphoma A20 tumor-bearing mice” value (B-cell lymphoma A20; administered alone) was “certain inhibitory activity”, the TGI (B-cell lymphoma A20; azvudine 2 mg/kg) was 88% and the “IR(%)” value (CT26 cells [4]; 0.25 mpk) was 57.5%. For the same molecule, the “TGI(%)” value (CT26 cells [4]; 0.25 mpk) was 63%, the “IR(%)” value (CT26 cells [4]; 1 mpk) was 84.5% and the “TGI(%)” value (CT26 cells [4]; 1 mpk) was 94%. For the same molecule, the “release of MCP-1” value ([5]; serum samples, 0.25 mg/kg PO QD × 5D, 2 h after last administration) was “significantly reduced”, the “release of IL8” value ([5]; serum samples, 0.25 mg/kg and 1 mg/kg PO QD × 5D) was “significantly reduced” and the other cytokines ([5]; serum samples, 0.25 mg/kg and 1 mg/kg) was “no significant change”. The “release of IFN-β” value [5, 9] was “decreased”, the “release of IFNγ” value [5, 9] was “increased” and the “release of TNFα” value [5, 9] was “increased”.
